Results as given in PMC9618103, “Exploratory toxicology studies of 2,3-substituted imidazo[1,2-a]pyridines with antiparasitic and anti-inflammatory properties” (Toxicology Research, 2022).

Legend:
[1] = tested on: Wistar rats; assay: Subacute toxicity: water and electrolyte balance (osmolality, sodium, potassium, urinary flow); format: in vivo
Experimental: (§1) For toxicity tests, acclimatized rats were randomly allocated to 12 groups (n = 12 for the control and n = 6 for the rest groups). […] Meanwhile, the aforementioned vehicles (dose volume 2 mL/kg b.w.) were administered to 3 groups. […] The animals were then housed in individual metabolic cages to collect urine for a period of 6 h and then the volume was recorded. Afterward, blood samples were obtained and the serum was separated by centrifugation at 1,620 × g for 10 min at room temperature.
Osmolality of serum and urine were assessed (in triplicate) by using a vapor pressure osmometer (Wescor 5500, Logan, United States). U/S ratio as well as osmolar (COsm) and free water clearances were calculated via conventional equations:where UOsm and SOsm are the osmolality values (mOsm/Kg) in urine and serum, respectively, and φ is the UFR (mL/min).
(§2) The levels of sodium and potassium were measured in urine and serum using a flame photometer (Corning 400, Medfield, United States). Calculation was made of the clearance, fractional excretion, and filtered load of sodium (FLS), filtered load of potassium (FLP), and filtered load of glucose (FLG) using the conventional equations:where CX is the clearance rate of X (mL/min), CCr is the creatinine clearance rate (mL/min), UX and SX are the […] concentrations of X, respectively, φ is the UFR (mL/min), FEX is the fractional excretion (%) of X, and FLX is the filtered load of X in μEq/min (Na^+ or K^+) or mg/min (glucose).

[2] = tested on: Wistar rats; assay: Hepatic and renal lipid peroxidation (lipid-soluble fluorescence); format: in vivo; settings: for hepatic LPO, change in words / renal LPO, change in words: compared to the control group (CCl4 also versus PO); for Renal Lipoperoxidation: kidney; for Renal Lipoperoxidation / Hepatic Lipoperoxidation: rats, p.o., 14 days at 10% of LD50 (CCl4, APAP: once daily, 3 days), mean ± SEM, n = 6; for Hepatic Lipoperoxidation: liver
Experimental: (§3) For toxicity tests, acclimatized rats were randomly allocated to 12 groups (n = 12 for the control and n = 6 for the rest groups). […] Meanwhile, the aforementioned vehicles (dose volume 2 mL/kg b.w.) were administered to 3 groups. […] Upon completion of the 14-day treatments and before sample collection, the bladders of animals were emptied by gentle pressure on the lower part of the abdomen to induce urination. The animals were then housed in individual metabolic cages to collect urine for a period of 6 h and then the volume was recorded. Afterward, blood samples were obtained and the serum was separated by centrifugation at 1,620 × g for 10 min at room temperature.
Lipid peroxidation (LPO) was evaluated by the formation of lipid-soluble fluorescence, as previously described. Briefly, kidney and liver tissues were homogenized in 3 and 5 mL of phosphate buffer (0.2 M, pH = 7.4), respectively. A volume of 1 mL (kidney) or 0.8 mL (liver) of the homogenates was added to 7 mL of chloroform-methanol (2:1, v/v), and after 15 s of vortex mixing, the resulting mixture was cooled using an ice bath for 30 min to allow for phase separation. The fluorescence of the organic phase was measured using a Shimadzu fluorometer (Japan; λex = 370 nm; λem = 430 nm), whose sensitivity was adjusted to 140 fluorescence units by using 1 μg/mL of quinine sulfate in 50 mM H2SO4. The results were expressed as relative fluorescence units per milligram of protein.[33]
(§4) The protein concentration in homogenates was measured by the Bradford method.[29]

[3] = tested on: Wistar rats; assay: Subacute toxicity: serum alanine aminotransferase and alkaline phosphatase activity; format: in vivo; settings: for Alanine Aminotransferase / Alkaline Phosphatase: serum, rats, p.o., 14 days at 10% of LD50 (CCl4, APAP: once daily, 3 days), mean ± SEM, n = 6
Experimental: as §3
The activities of serum alanine aminotransferase (ALT) and alkaline phosphatase (ALP) were measured with standard kits (RANDOX, Laboratories Ltd, UK).

[4] = tested on: Wistar rats; assay: Subacute toxicity: serum and urine glucose, urinary protein excretion; format: in vivo; settings: rats, p.o., 14 days at 10% of LD50 (CCl4, APAP: once daily, 3 days); mean ± SEM, n = 6
Experimental: as §1
Serum and urine glucose concentration were calculated using GOD-PAP kits (RANDOX, Laboratories Ltd, UK). Urinary protein was quantified using the Bradford method.[29]
(§5) Serum and urinary creatinine were determined by the Jaffe method. With this value, evaluation was made of the fractional excretion of sodium (FES), fractional excretion of potassium (FEP), and fractional excretion of glucose.[30]^,[31] The GFR was calculated from clearance of endogenous creatinine using the conventional equation:where GFR (CCr) is the creatinine clearance rate (mL/min); UCr and SCr are the creatinine concentrations (mg/dL) in urine and serum, respectively; and φ is the urinary flow rate (UFR) (mL/min). To avoid the error from the tubular secretion of creatinine found in males, only female animals were used.
as §2

[5] = tested on: Wistar rats; assay: Hepatic and renal reactive oxygen species (DCF formation); format: in vivo; settings: for hepatic ROS, change in words / renal ROS, change in words: compared to the control group (CCl4 also versus PO); for Renal ROS: kidney; for Renal ROS / Hepatic ROS: rats, p.o., 14 days at 10% of LD50 (CCl4, APAP: once daily, 3 days), mean ± SEM, n = 6; for Hepatic ROS: liver
Experimental: as §3
Reactive oxygen species (ROS) were measured by formation of 2′,7′-dichlorofluorescein (DCF). An aliquot of 10 μL (kidney) or 5 μL (liver) of the homogenates was added to 1,940 or 1,945 μL of TRIS:HEPES (18:1) and was incubated in the presence of 50 μL of 2′,7′-dichlorofluorescein diacetate for 1 h at 37 °C. In order to quench the reaction, the mixture was chilled using an ice bath. The fluorescence was measured using a Shimadzu fluorometer (Japan; λex = 488 nm; λem = 525 nm). The results were expressed as nM DCF formed per mg protein/h.[33]
as §4

[6] = tested on: renal secretory pathway of organic anions; assay: Active tubular secretion of organic acids (PAH uptake in kidney cortex slices); format: in vivo, rats; settings: kidney cortex slices, PAH 1 mM, 1 h, 25 °C; rats, p.o., 14 days at 10% of LD50 (CCl4, APAP: once daily, 3 days); mean ± SEM, n = 6
Experimental: as §3
p-Aminohippuric acid (PAH) was used as an indicator of the renal secretory pathway of organic anions. Kidneys were extracted and immediately submerged in Ringer solution (pH = 7.4 and mOsm = 290 ± 10 mOsm/kg) under constant bubbling with O2/CO2 (95/5%). The kidneys were decapsulated and slices of the kidney cortex were obtained, which were then incubated in Ringer solution containing PAH (1 mM) for 1 h at 25 °C under constant bubbling with O2/CO2 (95/5%). The levels of PAH were quantified with the Bratton-Marshall method and results were expressed as the PAH tissue/medium ratio (PAH t/m ratio).[31]^,[32]

[7] = tested on: Wistar rats; assay: Subacute toxicity: glomerular filtration rate (creatinine clearance) and serum creatinine; format: in vivo; settings: rats, p.o., 14 days at 10% of LD50 (CCl4, APAP: once daily, 3 days); mean ± SEM, n = 6
Experimental: as §1, §5

[8] = rats, p.o., 14 days at 10% of LD50 (CCl4, APAP: once daily, 3 days), mean ± SEM, n = 6
[9] = compared to the control (CCl4 also versus PO)

| SMILES | Filtered Load of Potassium [1, 8] [µEq/min] | Filtered Load of Sodium [1, 8] [µEq/min] | Fractional Excretion of Potassium [1, 8] [%] | Fractional Excretion of Sodium [1, 8] [%] | Serum Osmolality [1, 8] [mOsm/kg] | Serum Potassium [1, 8] [mEq/L] | Serum Sodium [1, 8] [mEq/L] | Urinary Flow Rate [1, 8] [µL/min] | Urinary Potassium Excretion [1, 8] [µEq/min] | Urinary Sodium Excretion [1, 8] [µEq/min] | hepatic LPO, change in words [2] | renal LPO, change in words [2] | Renal Lipoperoxidation [2] [URF/mg protein] | Hepatic Lipoperoxidation [2] [URF/mg protein] | Alanine Aminotransferase [3] [U/L] | Alkaline Phosphatase [3] [U/L] | Filtered Load of Glucose [4] [mg/min] | Fractional Excretion of Glucose [4] [%] | Urinary Glucose Excretion [4] [ng/min] | Urinary Protein Excretion [4] [µg/min] | other results |
| --- | --- | --- | --- | --- | --- | --- | --- | --- | --- | --- | --- | --- | --- | --- | --- | --- | --- | --- | --- | --- | --- |
| CC(=O)Nc1ccc(O)cc1 [APAP, acetaminophen, reference compound] | 3.99 ± 0.80 | 147.38 ± 31.27 | 12.50 ± 3.12 | 0.27 ± 0.09 | 295.68 ± 1.57 | 3.78 ± 0.22 | 138.58 ± 2.37 | 6.19 ± 1.15 | 0.47 ± 0.14 | 0.46 ± 0.21 | increased | increased | 0.46 ± 0.06 | 1.06 ± 0.06 | 41.47 ± 4.80 | 151.97 ± 11.19 | 1.35 ± 0.27 | 0.01 ± 1.9E-3 | 87.10 ± 19.92 | 0.94 ± 0.24 | serum potassium, change in words ([1]; compared to the control group, significant by PLS VIP and ANOVA): decreased; hepatic ROS, change in words [5]: increased; renal ROS, change in words [5]: increased; Renal ROS [5]: 421.62 ± 56.57 nM de DCF/mg protein/h; Hepatic ROS [5]: 1740.28 ± 231.55 nM de DCF/mg protein/h |
| ClC(Cl)(Cl)Cl [CCl4, carbon tetrachloride, reference compound] | 17.22 ± 5.29 | 592.11 ± 199.71 | 6.86 ± 2.06 | 0.21 ± 0.06 | 305.77 ± 3.41 | 4.27 ± 0.25 | 139.08 ± 1.63 | 6.59 ± 1.39 | 0.73 ± 0.10 | 0.72 ± 0.13 | increased | increased | 0.61 ± 0.07 | 1.06 ± 0.11 | 127.80 ± 4.08 | 328.19 ± 61.36 | 4.64 ± 1.71 | 0.02 ± 0.01 | 265.11 ± 89.54 | 12.15 ± 4.49 | U/S Osm ratio [1, 8]: 3.27 ± 0.37; serum ALP, change in words [3, 9]: increased; serum ALT, change in words [3, 9]: increased; Serum Glucose [4]: 103.17 ± 4.35 mg/dL; hepatic ROS, change in words [5]: increased; renal ROS, change in words [5]: increased; Renal ROS [5]: 333.27 ± 74.29 nM de DCF/mg protein/h; Hepatic ROS [5]: 1434.82 ± 121.35 nM de DCF/mg protein/h; PAH t/m ratio [6]: 2.08 ± 0.11; Glomerular Filtration Rate [7]: 4.30 ± 1.47 mL/min; Serum Creatinine [7]: 0.45 ± 0.13 mg/dL |
